US10308681B2, “Pharmaceutical composition for the prevention and treatment of cardiovascular disease comprising the peptide having the ability to inhibit angiotensin-1 converting enzyme as an active ingredient” (University-Industry Cooperation Group of Kyung Hee …, priority 2012, dated 2019)

What was measured:
[1] = test system: spontaneously hypertensive rats (SHR); assay: in vivo blood pressure regulation by a single administration (systolic pressure); parameters: species or system rat
Method: To investigate in vivo blood pressure regulation effect of the functional peptide separated from the oyster enzyme hydrolysate by a single administration, the peptide was administered to the hypertension animal model once (single administration), followed by the investigation of blood pressure.
Particularly, male spontaneously hypertensive rats (SHR; Central Lab. Animal Inc.) at 11 weeks and Wistar rats (Central Lab. Animal Inc.) were purchased, which were raised in a laboratory animal room in which the temperature was regulated at 22±3° C., the humidity was controlled at 50±5%, and the light/dark cycle was set at 12 h/12 h. Feeds and drinking water were provided freely. After a week of adaptation, the animals were divided into the experimental and the control groups and used for the experiment according to the guide line of Association for Assessment and Accreditation of Laboratory Care International approved by Institutional Animal Care and Use Committee, Kyunghee University College of Pharmacy. […] Then the animals were fixed for 20 minutes in a rat temperature control unit in which the temperature was maintained at 42° C. at the time point of 0, 3, 6, 9, 12, and 24 h, to let the tail vessel fully expanded. Then, systolic pressure was measured to investigate the antihypertensive activity.

[2] = test system: mild hypertension patients; conditions: Shimizu 1994; cited from earlier work
[3] = test system: blood angiotensin-II; assay: level of blood angiotensin-II in serum by ELISA after repeated administration; assay type: in vivo, rat; conditions: SHR serum after 4 weeks of oral administration, compared with negative control
Method: (§1) Particularly, the same rats as described in Example <5-2> were purchased and raised under the same condition. […] Systolic pressure was measured by the same manner as described in Example <5-2> on week 0, week 1, week 2, week 3, and week 4. […] The blood sample was centrifuged at 3,000 rpm for 10 minutes, and as a result serum was obtained and stored at −80° C. The levels of blood ACE and angiotensin-II in the stored serum were measured by using a commercial ELISA kit (USCN Life Science, China) according to the manufacturer's protocol.

[4] = test system: spontaneously hypertensive rats (SHR); assay: in vivo blood pressure regulation by the repeated administration (systolic pressure); parameters: species or system rat; conditions: oral, daily for 4 weeks, hydrolysate 100 mg/kg, YA 50 μg/kg
Method: To investigate in vivo blood pressure regulation effect of the functional peptide separated from the oyster enzyme hydrolysate by the repeated administration, the peptide was administered to the hypertension animal model repeatedly, followed by the investigation of blood pressure.
as §1

[5] = test system: blood ACE; assay: level of blood ACE in serum by ELISA after repeated administration; assay type: in vivo, rat; conditions: SHR serum after 4 weeks of oral administration, compared with negative control
Method: as §1

## C[C@H](CS)C(=O)N1CCC[C@H]1C(=O)O [Captopril, reference compound]
[1]; by the negative control, Captopril 8 mg/kg, hydrolysate 100 mg/kg
  blood pressure lowering effect: 18˜19%

## valine-tyrosine [Val-Tyr]
[2]
  activity of reducing blood pressure (in words): activity of reducing blood pressure

## C[C@H](NC(=O)[C@@H](N)Cc1ccc(O)cc1)C(=O)O [YA, tyrosine-alanine]
[3]
  level of blood angiotensin-II (in words): significantly decreased
[1]; 50 μg/kg, 6 hours
  blood pressure lowering effect after 6 hours from the administration: 33.9%
[4]
  blood pressure on repeated administration (in words): blood pressure did not increase for 2 weeks
[5]
  level of blood ACE (in words): significantly decreased
